Legend:
RAW macrophages = experiment: Cell-based NO2- scavenging activity (Griess assay, RAW macrophages); details: for Actual % inhibition of ROS / % inhibition of ROS in comparison to Oil Palm phenolics (± S.E): Table 2; for Actual % inhibition of ROS: each component added at the concentration present in 800 μg/mL OPP; for % inhibition of ROS in comparison to Oil Palm phenolics (± S.E): relative to OPP 800 μg/mL = 100; for Enhancement of anti-inflammatory and anti-oxidative activity of other components / Inhibitory action / nitrite scavenging activity (in words): cell-based Griess assay
Method: FIG. 1 is a graphical representation of the biological enhancement of chemical combination of major compounds of Oil Palm phenolics in cell-based NO2^− scavenging activity (Griess assay, RAW macrophages, Mean±SE).
FIG. 1 and Table 2 show the synergistic effect of the composition in cell based nitrite scavenging activity.
For the study, PH435 composition was prepared according to the concentration present in 800 μg/mL of Oil Palm Phenolics.

Red blood cells = experiment: Cell-based antioxidant protection in erythrocytes (CAP-e assay), ROS scavenging; details: for Effect on reducing ROS / inhibitory action (in words): RBC cells; for Actual % inhibition of ROS: each component added at the concentration present in 10 mg/mL OPP; for % inhibition of ROS in comparison to Oil Palm phenolics (±S.E.): relative to OPP 10 mg/mL = 100
Source text: H2O2 Measurement (Cell-Based Antioxidant Protection in Erythrocytes CAP-e Assay)
Red blood cells can be used as a cellular model to quantify reactive oxygen species (ROS). As these cells lose their nuclei at the erythroblast stage, they cannot perform transcription and translation for bringing about genetic and protein level changes.

[1] = Nitrite measurement (sodium nitroprusside, SNP assay), chemical system; details: for Inhibition of the nitrite ion (in words): chemical system
Source text: Nitrite Measurement (Sodium Nitroprusside—SNP Assay)
SNP in aqueous solution at physiological pH spontaneously generates nitric oxide, which interacts with oxygen to produce a nitrite ion that can be estimated by using griess reagent.

[2] = Chemical-based ORAC assay
[3] = system: Granulocytes/polymorphonuclear (PMN) cells; experiment: H2O2 measurement, cell-based antioxidant protection in granulocytes/polymorphonuclear (PMN) cells assay
Source text: H2O2 Measurement (Cell-Based Antioxidant Protection in Granulocytesipolymorphonuclear—PMN Cells Assay)

Row | Compound | Actual % inhibition of ROS (RAW macrophages) [%] | % inhibition of ROS in comparison to Oil Palm phenolics (± S.E) (RAW macrophages) | Actual % inhibition of ROS (Red blood cells) | % inhibition of ROS in comparison to Oil Palm phenolics (±S.E.) (Red blood cells) | further results
1 | O=C(/C=C/c1ccc(O)c(O)c1)O[C@@H]1C=C(C(=O)O)C[C@@H](O)[C@@H]1O [3-Caffeoylshikimic acid, 3-caffeoylshikimic acid] | 12.3 | 18.6(±2.3) % |  |  | 
2 | O=C(O)C1=CC(=O)[C@@H](O)[C@H](O)C1 [3-dehydroshikimic acid] |  |  | 9.9% | 13.4 (±0.05) % | Enhancement of anti-inflammatory and anti-oxidative activity of other components (RAW macrophages): enhancement effect could be seen; Inhibitory action / nitrite scavenging activity (in words) (RAW macrophages): shows inhibitory action; Effect on reducing ROS / inhibitory action (in words) (Red blood cells): shows inhibitory action; Synergy / enhancement effect of the combination on ROS inhibition (Red blood cells; chemical combination versus mathematical sum): enhancement effect could be seen; Inhibition of the nitrite ion (in words) [1]: low inhibition; Inhibition of the nitrite ion (in words) ([1]; listed as 3-dehydroshikirnic acid): shows inhibitory action; Enhancement effect [2]: enhancement effect could be seen
3 | O=C(/C=C/c1ccc(O)c(O)c1)O[C@@H]1[C@H](O)C=C(C(=O)O)C[C@H]1O [4-Caffeoylshikimic acid, 4-caffeoylshikimic acid] | 8.4 | 12.7(±2.5) % |  |  | 
4 | O=C(/C=C/c1ccc(O)c(O)c1)O[C@@H]1CC(C(=O)O)=C[C@@H](O)[C@H]1O [5-Caffeoylshikimic acid, 5-caffeoylshikimic acid] | 8.8 | 13.4(±3.7) % |  |  | 
5 | O=C(O)c1ccc(O)c(O)c1 [Protocatechuic acid] | 8.6 | 13 (±0.7) % |  |  | 
6 | O=C(O)C1=C[C@@H](O)[C@@H](O)[C@H](O)C1 [Shikimic acid] | 3.4 | 5.2 (±0.7) % | -Not detected- | -Not detected- | Enhancement of anti-inflammatory and anti-oxidative activity of other components (RAW macrophages): able to enhance; Inhibitory action / nitrite scavenging activity (in words) (RAW macrophages): shows inhibitory action; Effect on reducing ROS / inhibitory action (in words) (Red blood cells): shows no activity; Effect on reducing ROS / inhibitory action (in words) (Red blood cells; listed as shikimic acid): does not show any effect; Enhancement of anti-inflammatory and anti-oxidative activity of other components [3]: able to enhance; Inhibitory action (in words) [3]: shows inhibitory action; Enhancement of nitrite inhibition when added with other components ([1]; added along with p-hydroxybenzoic acid): does not show any enhancement; Inhibition of the nitrite ion (in words) [1]: shows inhibitory action; Inhibition of the nitrite ion (in words) ([1]; listed as shikimic acid): low inhibition
7 | O=C(O)c1ccc(O)cc1 [p-hydoxybenzoic acid] | 11.4 | 17.3(±2.8) % | 22.5% | 30.6 (±0.2) % | 
8 | caffeoylshikimic acid |  |  | 25.9% | 35.2(±0.1) % | 
